US20250304596A1, “PYRAZINE DERIVATIVES AND USES THEREOF” (FOGHORN THERAPEUTICS INC., priority 2022, published 2025)

Assays:
HiBit-BRM fusion protein = target: T1, HiBit-BRM fusion protein (Homo sapiens, UniProt P51531); experiment: HiBiT-BRM cell-based degradation assay (Nano-Glo HiBiT Lytic Detection, 24 h); conditions: stable HeLa cell line expressing HiBiT-BRM; for DC50: read-out: BRM HiBit Degradation IC50
T1 construct: expressed in transfected cells
Procedure: (§1) Procedure: A stable HeLa cell line expressing HiBiT-BRM was generated. On day 0, 5000 cells were seeded in 40 μL of media into each well of 384-well cell culture plates. On day 1, cells were treated with 120 nL DMSO or 120 nL of 3-fold serially DMSO-diluted compounds (10 points in duplicate with 30 μM as final top dose). Subsequently plates were incubated for 24 h in a standard tissue culture incubator and equilibrated at room temperature for 15 minutes. Nano-Glo HiBiT Lytic Detection System (Promega N3050) reagent was freshly prepared and 20 ul was added to each well. Upon addition of this LgBit-containing reagent, the HiBiT and LgBiT proteins associate to form the luminescent NanoBiT Iuciferase. The plates were shaken for 10 minutes at room temperature and the bioluminescence read using an EnVision plate reader (PerkinElmer).
(§2) The degradation % was calculated using the following formula: % degradation=100%-100%×(LumSample−LumLC)/(LumHC−LumLC). DMSO treated cells are employed as High Control (HC) and 2 μM of a known BRM/BRG1 degrader standard treated cells are employed as Low Control (LC).

[1] = target: T2, HiBit-BRG1 fusion protein (Homo sapiens, UniProt P51532); experiment: HiBiT-BRG1 cell-based degradation assay (Nano-Glo HiBiT Lytic Detection, 24 h); conditions: stable HeLa cell line expressing HiBit-BRG1 and LgBit; for Dmax: read-out: BRG1 HiBit Degradation Maximum (%); for DC50: read-out: BRMG1 HiBit Degradation IC50
T2 construct: expressed in transfected cells
T2 sequence (P51532 whole entry, the tested form may be a part): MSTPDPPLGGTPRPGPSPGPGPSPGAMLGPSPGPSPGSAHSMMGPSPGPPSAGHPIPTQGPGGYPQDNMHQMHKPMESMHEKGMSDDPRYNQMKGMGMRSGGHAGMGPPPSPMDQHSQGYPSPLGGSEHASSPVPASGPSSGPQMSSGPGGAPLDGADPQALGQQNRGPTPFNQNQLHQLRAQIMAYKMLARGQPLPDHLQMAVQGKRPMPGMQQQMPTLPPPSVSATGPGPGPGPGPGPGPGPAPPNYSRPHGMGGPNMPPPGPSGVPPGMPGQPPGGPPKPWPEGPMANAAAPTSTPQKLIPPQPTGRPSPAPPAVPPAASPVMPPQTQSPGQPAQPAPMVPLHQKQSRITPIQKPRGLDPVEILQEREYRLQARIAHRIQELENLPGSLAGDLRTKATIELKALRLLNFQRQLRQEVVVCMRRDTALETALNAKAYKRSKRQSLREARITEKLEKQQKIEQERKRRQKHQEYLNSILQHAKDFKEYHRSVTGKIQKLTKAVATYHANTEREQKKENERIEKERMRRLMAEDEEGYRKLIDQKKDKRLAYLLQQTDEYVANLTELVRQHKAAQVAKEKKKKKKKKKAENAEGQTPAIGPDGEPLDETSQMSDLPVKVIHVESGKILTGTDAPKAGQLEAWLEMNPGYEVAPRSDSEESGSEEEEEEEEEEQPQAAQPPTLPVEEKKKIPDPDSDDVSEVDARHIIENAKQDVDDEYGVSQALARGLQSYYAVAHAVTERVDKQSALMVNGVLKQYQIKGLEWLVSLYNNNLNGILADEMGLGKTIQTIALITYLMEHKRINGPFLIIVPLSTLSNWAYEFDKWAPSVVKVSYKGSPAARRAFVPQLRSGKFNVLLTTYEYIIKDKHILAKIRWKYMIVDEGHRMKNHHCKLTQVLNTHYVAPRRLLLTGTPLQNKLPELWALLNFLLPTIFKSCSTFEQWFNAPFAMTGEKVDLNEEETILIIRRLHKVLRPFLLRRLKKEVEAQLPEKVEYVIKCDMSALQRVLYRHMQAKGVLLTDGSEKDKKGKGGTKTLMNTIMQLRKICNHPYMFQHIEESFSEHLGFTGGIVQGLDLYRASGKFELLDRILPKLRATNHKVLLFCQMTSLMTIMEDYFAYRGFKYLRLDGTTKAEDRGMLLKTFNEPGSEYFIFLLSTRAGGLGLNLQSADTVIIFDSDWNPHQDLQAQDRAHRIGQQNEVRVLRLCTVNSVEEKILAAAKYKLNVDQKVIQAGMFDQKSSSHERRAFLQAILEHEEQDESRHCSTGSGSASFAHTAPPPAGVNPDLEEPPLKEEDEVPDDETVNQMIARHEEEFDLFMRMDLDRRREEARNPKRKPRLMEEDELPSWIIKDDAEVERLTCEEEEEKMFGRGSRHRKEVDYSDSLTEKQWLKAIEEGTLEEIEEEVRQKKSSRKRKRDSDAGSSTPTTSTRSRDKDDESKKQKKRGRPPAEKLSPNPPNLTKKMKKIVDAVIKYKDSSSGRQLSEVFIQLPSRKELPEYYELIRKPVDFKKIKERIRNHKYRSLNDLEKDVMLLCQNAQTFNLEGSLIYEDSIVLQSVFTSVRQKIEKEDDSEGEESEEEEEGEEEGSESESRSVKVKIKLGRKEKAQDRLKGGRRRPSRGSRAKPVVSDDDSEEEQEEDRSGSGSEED
Procedure: as §1
For measurement of BRG1 degradation, a stable HeLa cell line expressing HiBit-BRG1 and LgBit was generated. The same protocol as above was then followed.
as §2

T1 sequence (P51531 whole entry, the tested form may be a part): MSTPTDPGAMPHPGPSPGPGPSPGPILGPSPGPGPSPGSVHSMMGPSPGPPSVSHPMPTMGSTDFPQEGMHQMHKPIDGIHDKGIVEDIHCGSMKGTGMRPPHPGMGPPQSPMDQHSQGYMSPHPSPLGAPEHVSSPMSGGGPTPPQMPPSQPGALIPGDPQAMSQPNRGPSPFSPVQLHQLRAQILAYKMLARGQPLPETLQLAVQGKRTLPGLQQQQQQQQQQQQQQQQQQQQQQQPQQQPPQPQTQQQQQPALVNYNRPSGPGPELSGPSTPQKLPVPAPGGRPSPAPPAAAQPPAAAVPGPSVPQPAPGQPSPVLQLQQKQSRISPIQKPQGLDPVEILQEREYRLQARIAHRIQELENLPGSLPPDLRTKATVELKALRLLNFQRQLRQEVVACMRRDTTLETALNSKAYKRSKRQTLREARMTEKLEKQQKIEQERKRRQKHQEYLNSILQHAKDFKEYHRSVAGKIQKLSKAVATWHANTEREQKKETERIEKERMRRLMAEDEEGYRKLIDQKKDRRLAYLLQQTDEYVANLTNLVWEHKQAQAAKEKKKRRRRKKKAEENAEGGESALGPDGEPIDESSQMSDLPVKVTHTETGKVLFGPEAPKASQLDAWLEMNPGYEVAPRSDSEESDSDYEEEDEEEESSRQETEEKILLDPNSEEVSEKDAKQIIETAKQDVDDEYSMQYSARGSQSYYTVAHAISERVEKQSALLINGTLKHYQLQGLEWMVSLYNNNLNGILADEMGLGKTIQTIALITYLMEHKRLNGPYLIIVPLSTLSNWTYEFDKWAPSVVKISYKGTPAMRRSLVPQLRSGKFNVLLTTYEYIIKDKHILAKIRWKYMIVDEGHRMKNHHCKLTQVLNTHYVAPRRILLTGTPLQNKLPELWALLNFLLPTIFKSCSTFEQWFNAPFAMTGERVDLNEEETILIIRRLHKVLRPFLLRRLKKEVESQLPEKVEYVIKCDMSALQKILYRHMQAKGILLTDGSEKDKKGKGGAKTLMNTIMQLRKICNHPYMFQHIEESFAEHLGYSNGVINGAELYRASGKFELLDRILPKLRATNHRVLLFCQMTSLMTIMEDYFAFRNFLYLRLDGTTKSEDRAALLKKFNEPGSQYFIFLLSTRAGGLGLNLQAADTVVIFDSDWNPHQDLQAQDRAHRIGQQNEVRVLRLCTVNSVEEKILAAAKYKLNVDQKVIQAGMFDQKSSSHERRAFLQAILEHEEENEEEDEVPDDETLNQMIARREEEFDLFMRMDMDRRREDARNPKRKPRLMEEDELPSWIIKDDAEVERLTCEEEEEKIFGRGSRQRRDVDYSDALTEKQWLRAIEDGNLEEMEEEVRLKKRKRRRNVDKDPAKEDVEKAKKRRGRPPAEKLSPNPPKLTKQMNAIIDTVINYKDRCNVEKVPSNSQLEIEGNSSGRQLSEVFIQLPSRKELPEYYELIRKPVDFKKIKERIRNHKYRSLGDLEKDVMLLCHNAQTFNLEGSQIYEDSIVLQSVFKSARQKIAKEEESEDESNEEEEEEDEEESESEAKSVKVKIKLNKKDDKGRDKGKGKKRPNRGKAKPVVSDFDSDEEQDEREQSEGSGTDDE

DC50 (HiBit-BRM fusion protein) | Dmax [1] | DC50 [1] | Structure (SMILES) | BRM HiBit Degradation Maximum (%) (HiBit-BRM fusion protein)
> 0.01 µM | < 50% | > 1 µM | Cc1ncsc1-c1ccc([C@H](C)NC(=O)[C@@H]2C[C@@H](O)CN2C(=O)[C@@H](c2cc(Oc3cnc(N4CCC(c5sc6nnc(-c7ccccc7O)cc6c5C)CC4)nc3)no2)C(C)C)cc1 (single isomer, unassigned) [Compound 51] | A (“A” indicates maximum degradation ≥75%)
< 0.01 µM | < 50% | > 1 µM | Cc1ncsc1-c1ccc([C@H](C)NC(=O)[C@@H]2C[C@@H](O)CN2C(=O)[C@@H](c2cc(-c3cnc(N4CC[C@@H](c5sc6nnc(-c7ccccc7O)cc6c5C)C[C@H]4C)nc3)no2)C(C)C)cc1 [Compound 30, (2S,4R)-4-hydroxy-1-((R)-2-(3-(2-((2R,4R)-4-(3-(2-hydroxyphenyl)-5-methylthieno[2,3-c]pyridazin-6-yl)-2-methylpiperidin-1-yl)pyrimidin-5-yl)isoxazol-5-yl)-3-methylbutanoyl)-N-((S)-1-(4-(4-methylthiazol-5-yl)phenyl)ethyl)pyrrolidine-2-carboxamide] | A (“A” indicates maximum degradation ≥75%)
< 0.01 µM | > 75% | – | Cc1ncsc1-c1ccc([C@H](C)NC(=O)[C@@H]2C[C@@H](O)CN2C(=O)[C@@H](c2cc(-c3cnc(NC45CC(c6sc7nnc(-c8ccccc8O)cc7c6C)(C4)C5)nc3)no2)C(C)C)cc1 [Compound 44, (2S,4R)-4-hydroxy-1-((R)-2-(3-(2-((3-(3-(2-hydroxyphenyl)-5-methylthieno[2,3-c]pyridazin-6-yl)bicyclo[1.1.1]pentan-1-yl)amino)pyrimidin-5-yl)isoxazol-5-yl)-3-methylbutanoyl)-N-((S)-1-(4-(4-methylthiazol-5-yl)phenyl)ethyl)pyrrolidine-2-carboxamide] | A (“A” indicates maximum degradation ≥75%)
> 0.01 µM | < 50% | – | Cc1cc(N2CC[C@H](c3sc4nnc(-c5ccccc5O)cc4c3C)C2)ncc1-c1cc([C@H](C(=O)N2C[C@H](O)C[C@H]2C(=O)N[C@@H](C)c2ccc(-c3scnc3C)cc2)C(C)C)on1 [Compound 97, (2S,4R)-4-hydroxy-1-((R)-2-(3-(6-((S)-3-(3-(2-hydroxyphenyl)-5-methylthieno[2,3-c]pyridazin-6-yl)pyrrolidin-1-yl)-4-methylpyridin-3-yl)isoxazol-5-yl)-3-methylbutanoyl)-N-((S)-1-(4-(4-methylthiazol-5-yl)phenyl)ethyl)pyrrolidine-2-carboxamide] | A (“A” indicates maximum degradation ≥75%)
> 0.01 µM | < 50% | > 1 µM | Cc1ncsc1-c1ccc([C@H](C)NC(=O)[C@@H]2C[C@@H](O)CN2C(=O)[C@@H](c2cc(-c3ncc(N4CCC(c5sc6nnc(-c7ccccc7O)cc6c5C)CC4)cn3)no2)C(C)C)cc1 [Compound 36, (2S,4R)-4-hydroxy-1-((R)-2-(3-(5-(4-(3-(2-hydroxyphenyl)-5-methylthieno[2,3-c]pyridazin-6-yl)piperidin-1-yl)pyrimidin-2-yl)isoxazol-5-yl)-3-methylbutanoyl)-N-((S)-1-(4-(4-methylthiazol-5-yl)phenyl)ethyl)pyrrolidine-2-carboxamide] | A (“A” indicates maximum degradation ≥75%)
> 0.01 µM | < 50% | > 1 µM | Cc1ncsc1-c1ccc([C@H](C)NC(=O)[C@@H]2C[C@@H](O)CN2C(=O)[C@@H](c2cc(N3CCN(c4ncc(-c5sc6nnc(-c7ccccc7O)cc6c5C)cn4)CC3)no2)C(C)C)cc1 (single isomer, unassigned) [Compound 31] | B (“B” indicates maximum degradation ≥50%)
